Measured values reported in patent US12570655B2, “Cysteine covalent modifiers of AKT1 and uses thereof” (Terremoto Biosciences, Inc., priority 2023, dated 2026).
Read-outs that look alike come from different tables or passages of the source.

Tests used:
Format in all cases: cell-based
[1] = system: LAPC4 prostate cancer cells; test: Antiproliferative effects in LAPC4 cells (CellTiter Glo); conditions: LAPC4 cells (AKT1 E17K allele), read-out: LAPC4 proliferation IC50
Procedure, shortened: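 Luminescent ATP read-out (CellTiter Glo) after 72 h compound exposure; 1,000 cells/well in IMDM + 12% FBS + 1% P/S. IC50 by Hill equation fit of luminescence vs. log(inhibitor).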

[2] = target: T1, AKT1 WT (Homo sapiens, UniProt P31749); test: Live cell AKT1 WT target engagement by NanoBRET competitive probe displacement; conditions: HEK293 cells transfected with kinase-NanoLuciferase fusion, 2 h at 37° C.
T1 construct: expressed in transfected cells; host or cells: HEK293
T1 sequence (P31749 whole entry, the tested form may be a part): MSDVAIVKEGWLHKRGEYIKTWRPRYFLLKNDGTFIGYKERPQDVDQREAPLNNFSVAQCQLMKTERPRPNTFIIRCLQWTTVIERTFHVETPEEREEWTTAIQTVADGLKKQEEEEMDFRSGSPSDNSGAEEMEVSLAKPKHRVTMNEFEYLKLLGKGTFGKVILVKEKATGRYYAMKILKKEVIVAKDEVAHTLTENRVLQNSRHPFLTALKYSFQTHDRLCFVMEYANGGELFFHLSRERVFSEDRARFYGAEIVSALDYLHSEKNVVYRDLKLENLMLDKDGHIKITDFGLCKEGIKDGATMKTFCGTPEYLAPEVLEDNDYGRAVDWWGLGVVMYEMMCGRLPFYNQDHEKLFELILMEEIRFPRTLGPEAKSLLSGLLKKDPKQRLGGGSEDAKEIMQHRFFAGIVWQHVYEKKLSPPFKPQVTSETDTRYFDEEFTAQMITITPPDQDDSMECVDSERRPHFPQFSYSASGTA
Procedure, shortened: (§1)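 NanoLuc-kinase fusions, HEK293, transfected overnight; compound serial dilution + ATP-competitive fluorescent tracer at ~EC50; 2 h, 37 °C. Read 460/600 nm with extracellular NanoLuc inhibitor; BRET = E600/E460; IC50 by Hill fit.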

[3] = target: T2, AKT1 E17K (Homo sapiens, UniProt P31749, E17K); test: Live cell AKT1 E17K target engagement by NanoBRET competitive probe displacement; conditions: HEK293 cells transfected with kinase-NanoLuciferase fusion, 2 h at 37° C.
T2 construct: expressed in transfected cells; host or cells: HEK293
T2 sequence (P31749 whole entry E17K, the tested form may be a part): as the sequence (P31749 whole entry, the tested form may be a part) above, with E17K counted along it
Procedure, shortened: as §1

[4] = target: T3, AKT2 (Homo sapiens, UniProt P31751); test: Live cell AKT2 target engagement by NanoBRET competitive probe displacement; conditions: HEK293 cells transfected with kinase-NanoLuciferase fusion, 2 h at 37° C.
T3 construct: expressed in transfected cells; host or cells: HEK293
T3 sequence (P31751 whole entry, the tested form may be a part): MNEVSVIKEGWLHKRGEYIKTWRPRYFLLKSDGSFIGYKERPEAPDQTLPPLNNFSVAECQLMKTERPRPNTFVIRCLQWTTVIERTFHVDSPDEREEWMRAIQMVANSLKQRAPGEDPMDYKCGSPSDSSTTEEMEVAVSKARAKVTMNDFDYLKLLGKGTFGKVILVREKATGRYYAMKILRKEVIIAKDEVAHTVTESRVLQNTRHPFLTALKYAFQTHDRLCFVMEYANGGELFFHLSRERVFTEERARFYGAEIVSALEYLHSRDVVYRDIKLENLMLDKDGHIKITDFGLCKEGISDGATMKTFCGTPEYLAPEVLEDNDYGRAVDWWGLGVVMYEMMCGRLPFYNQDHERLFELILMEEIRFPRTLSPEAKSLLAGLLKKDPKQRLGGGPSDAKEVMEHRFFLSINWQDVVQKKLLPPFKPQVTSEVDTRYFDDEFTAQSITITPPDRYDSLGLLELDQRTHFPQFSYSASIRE
Procedure, shortened: as §1

Row | IC50 ([1]; Homo sapiens, LAPC4, 72 h) [nM] | IC50 [2] [nM] | IC50 [3] [nM] | IC50 [4] [nM] | IC50 ([1]; 72 h) [nM] | SMILES
1 | 183 | 11.3 | 52.7 | 67.8 |  | CN(C)C/C=C/C(=O)Nc1ccccc1C(=O)N[C@H]1CCc2cc(-n3c(-c4cccnc4N)nc4ccc(-n5cccn5)nc43)ccc21 [Example 16, (S,E)-N-(5-(2-(2-aminopyridin-3-yl)-5-(1H-pyrazol-1-yl)-3H-imidazo[4,5-b]pyridin-3-yl)-2,3-dihydro-1H-inden-1-yl)-2-(4-(dimethylamino)but-2-enamido)benzamide]
2 |  | 666 | 19.4 | 122 | 455 | C=CC(=O)N1CCC(N[C@@H]2c3ccc(-n4c(-c5cccnc5N)nc5ccc(-n6cccn6)nc54)cc3CC2F)C(C)C1 (single isomer, unassigned) [Example 290, 1-[(3*,4*)-4-{[(1R,2*)-5-[2-(2-aminopyridin-3-yl)-5-(pyrazol-1-yl)imidazo[4,5-b]pyridin-3-yl]-2-fluoro-2,3-dihydro-1H-inden-1-yl]amino}-3-methylpiperidin-1-yl]prop-2-en-1-one]
3 | 247 | 17.9 | 86.3 | 346 |  | C=CC(=O)N1CCN(NC2CCc3cc(-n4c(-c5cccnc5N)nc5ccc(-n6cccn6)nc54)ccc32)CC1 (racemic) [Example 77, 1-[4-({5-[2-(2-aminopyridin-3-yl)-5-(pyrazol-1-yl)imidazo[4,5-b]pyridin-3-yl]-2,3-dihydro-1H-inden-1-yl}amino)piperazin-1-yl]prop-2-en-1-one]
4 | 801 | 877 | 30.6 | 954 |  | C=CC(=O)N1CCC(N[C@H]2CCc3cc(-n4c(-c5cccnc5N)nc5ccc(N6CCC(F)(F)CC6)nc54)ccc32)CC1 [Example 186, 1-(4-{[(1S)-5-[2-(2-aminopyridin-3-yl)-5-(4,4-difluoropiperidin-1-yl)imidazo[4,5-b]pyridin-3-yl]-2,3-dihydro-1H-inden-1-yl]amino}piperidin-1-yl)prop-2-en-1-one]
5 |  | 652 | 11.6 | 102 | 440 | C=CC(=O)N1CCC(N[C@@H]2c3ccc(-n4c(-c5cccnc5N)nc5ccc(-n6ccc(C#N)n6)nc54)cc3CC2F)CC1 (single isomer, unassigned) [Example 312, 1-(3-((1R,2*)-1-((1-acryloylpiperidin-4-yl)amino)-2-fluoro-2,3-dihydro-1H-inden-5-yl)-2-(2-aminopyridin-3-yl)-3H-imidazo[4,5-b]pyridin-5-yl)-1H-pyrazole-3-carbonitrile]
6 |  | > 1000 | > 1000 | > 10000 | > 10000 | C=CC(=O)N1CCC(NC2c3ccc(-n4c(-c5cccnc5N)nc5ccc(-n6cccn6)nc54)cc3CC2O)CC1 (single isomer, unassigned) [Example 151, 1-(4-(((1*,2*)-5-(2-(2-aminopyridin-3-yl)-5-(1H-pyrazol-1-yl)-3H-imidazo[4,5-b]pyridin-3-yl)-2-hydroxy-2,3-dihydro-1H-inden-1-yl)amino)piperidin-1-yl)prop-2-en-1-one]
7 | 62.7 | 80.5 | 7.65 | 24.8 |  | C=CC(=O)N1CCC(N[C@H]2CCc3cc(-n4c(-c5cccnc5N)nc5ccc(-n6ccc(OC)n6)nc54)ccc32)CC1 [Example 206, 1-(4-{[(1S)-5-[2-(2-aminopyridin-3-yl)-5-(3-methoxypyrazol-1-yl)imidazo[4,5-b]pyridin-3-yl]-2,3-dihydro-1H-inden-1-yl]amino}piperidin-1-yl)prop-2-en-1-one]
8 | 77.3 | 205 | 5.56 | 18.8 |  | C=CC(=O)N1CCC(N[C@H]2CCc3cc(-n4c(-c5ccccc5F)nc5ccc(-n6cccn6)nc54)ccc32)CC1 [Example 241, 1-(4-{[(1S)-5-[2-(2-fluorophenyl)-5-(pyrazol-1-yl)imidazo[4,5-b]pyridin-3-yl]-2,3-dihydro-1H-inden-1-yl]amino}piperidin-1-yl)prop-2-en-1-one]
